Test results from patent publication US20080009418A1, “Selective Inhibitors” (Alchemia LTD., priority 2004, published 2008).

Legend:
Human Melanocortin (MC3) = target: T1, Human Melanocortin (MC3) (Homo sapiens, UniProt P41968); assay: Radioligand binding, human melanocortin MC3 membranes, FlashPlate, [125I]-NDP-αMSH; details: compound at 10 μM, [125I]-NDP-αMSH
T1 construct: purchased Perkin Elmer Biosignal
In short: (§1)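 Cloned human receptor membranes were coated onto FlashPlate wells and incubated with radioligand and compound (added from a 0.5 mM DMSO daughter plate) for 1 hour at room temperature in the dark. Scintillation counting gave percent inhibition, with DMSO defining total and reference ligand defining non-specific binding.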

Human μ-opioid (MOP) = target: T2, Human μ-opioid (MOP) (Homo sapiens, UniProt P35372); assay: Radioligand binding, human μ-opioid (MOP) membranes, FlashPlate, [3H]-Naloxone; details: compound at 10 μM, [3H]-Naloxone
T2 construct: purchased Perkin Elmer Biosignal
In short: as §1

Mouse urotensin (mUR2) = target: T3, Mouse urotensin (mUR2) (Mus musculus, UniProt Q8VIH9); assay: Radioligand binding, mouse urotensin mUR2 membranes, FlashPlate, [125I]-Urotensin II; details: compound at 10 μM, [125I]-Urotensin II
T3 construct: purchased Perkin Elmer Biosignal
T3 sequence (Q8VIH9 1-385): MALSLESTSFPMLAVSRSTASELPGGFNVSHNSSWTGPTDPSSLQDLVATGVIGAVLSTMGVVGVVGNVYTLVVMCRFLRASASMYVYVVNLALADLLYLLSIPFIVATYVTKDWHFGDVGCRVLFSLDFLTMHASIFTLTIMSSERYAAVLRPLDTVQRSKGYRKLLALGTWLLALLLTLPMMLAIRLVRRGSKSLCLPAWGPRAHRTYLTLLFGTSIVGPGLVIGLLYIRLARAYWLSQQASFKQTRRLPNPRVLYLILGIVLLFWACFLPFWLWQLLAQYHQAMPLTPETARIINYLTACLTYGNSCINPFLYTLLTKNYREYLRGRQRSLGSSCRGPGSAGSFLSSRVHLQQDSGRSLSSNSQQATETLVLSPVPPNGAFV
In short: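 Cloned mouse urotensin (mUR2) receptor membranes from Perkin Elmer Biosignal were immobilized in FlashPlate microplates using a proprietary coating. Each well got 19.5 μl buffer, then 0.5 μl of DMSO, reference ligand, or compound. Adding 5 μl of [125I]-Urotensin II, diluted to 5× final concentration in binding buffer, started binding. Plates were sealed with TopSeal-A and incubated 1 hour at room temperature in the dark. Wells were counted for 30 seconds each on a TopCount after a 60-second delay, and percentage inhibition was calculated.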

Human melanocortin (MC5) = target: T4, Human melanocortin (MC5) (Homo sapiens, UniProt P33032); assay: Radioligand binding, human melanocortin MC5 membranes, FlashPlate, [125I]-NDP-αMSH; details: compound at 10 μM, [125I]-NDP-αMSH
T4 construct: purchased Perkin Elmer Biosignal
In short: as §1

[1] = target: T5, Human melanin-concentrating hormone (MCH1) (Homo sapiens, UniProt Q99705); assay: Radioligand binding, human melanin-concentrating hormone MCH1 membranes, FlashPlate, [125I]-S36057; details: compound at 10 μM
T5 construct: purchased Perkin Elmer Biosignal
In short: as §1

Human Melanocortin (MC4) = target: T6, Human Melanocortin (MC4) (Homo sapiens, UniProt P32245); assay: Radioligand binding, human melanocortin MC4 membranes, FlashPlate, [125I]-NDP-αMSH; details: compound at 10 μM, [125I]-NDP-αMSH
T6 construct: purchased Perkin Elmer Biosignal
In short: as §1

[2] = target: T7, Human neuropeptide Y (NPY-Y1) (Homo sapiens, UniProt P25929); assay: Radioligand binding, human neuropeptide Y NPY-Y1 membranes, FlashPlate, [125I]-PYY; details: compound at 10 μM, [125I]-PYY
T7 construct: purchased Perkin Elmer Biosignal
T7 sequence (P25929 1-384): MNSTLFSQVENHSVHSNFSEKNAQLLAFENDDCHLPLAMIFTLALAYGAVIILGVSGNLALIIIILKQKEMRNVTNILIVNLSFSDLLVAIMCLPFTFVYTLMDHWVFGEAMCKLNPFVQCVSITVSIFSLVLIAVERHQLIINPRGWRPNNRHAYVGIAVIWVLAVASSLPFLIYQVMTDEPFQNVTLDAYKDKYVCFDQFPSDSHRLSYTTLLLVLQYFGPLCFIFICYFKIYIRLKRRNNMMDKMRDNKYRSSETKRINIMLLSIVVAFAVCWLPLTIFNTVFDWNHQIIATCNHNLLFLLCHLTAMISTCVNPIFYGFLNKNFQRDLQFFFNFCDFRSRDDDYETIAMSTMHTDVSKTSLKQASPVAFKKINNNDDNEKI
In short: as §1

Human opioid (ORL1) = target: T8, Human opioid (ORL1) (Homo sapiens, UniProt P41146); assay: Radioligand binding, human opioid ORL1 membranes, FlashPlate, [125I]-Nociceptin; details: compound at 10 μM, [125I]-Nociceptin
T8 construct: purchased Perkin Elmer Biosignal
In short: as §1

Human δ-opioid (DOP) = target: T9, Human δ-opioid (DOP) (Homo sapiens, UniProt P41143); assay: Radioligand binding, human δ-opioid (DOP) membranes, FlashPlate, [3H]-Bremazocine; details: compound at 10 μM, [3H]-Bremazocine
T9 construct: purchased Perkin Elmer Biosignal
In short: as §1

Human κ-Opioid (KOP) = target: T10, Human κ-Opioid (KOP) (Homo sapiens, UniProt P41145); assay: Radioligand binding, human κ-opioid (KOP) membranes, filtration, [3H]-Diprenorphine; details: compound at 10 μM, [3H]-Diprenorphine
T10 construct: purchased Perkin Elmer Biosignal
In short: (§2)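 Filtration binding on cloned human receptor membranes (1 Unit/well), [125I]-Substance P for NK1 and [3H]-Diprenorphine for KOP, 1 h at room temperature. Filters PEI-presoaked, washed with cold 50 mM Tris-HCl pH 7.4, counted by scintillation; percent inhibition calculated, reference ligand defining non-specific binding.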

Human neurokinin (NK1) = target: T11, Human neurokinin (NK1) (Homo sapiens, UniProt P25103); assay: Radioligand binding, human neurokinin NK1 membranes, filtration, [125I]-Substance P; details: compound at 10 μM, [125I]-Substance P
T11 construct: purchased Perkin Elmer Biosignal
In short: as §2

T6 sequence (P32245 whole entry): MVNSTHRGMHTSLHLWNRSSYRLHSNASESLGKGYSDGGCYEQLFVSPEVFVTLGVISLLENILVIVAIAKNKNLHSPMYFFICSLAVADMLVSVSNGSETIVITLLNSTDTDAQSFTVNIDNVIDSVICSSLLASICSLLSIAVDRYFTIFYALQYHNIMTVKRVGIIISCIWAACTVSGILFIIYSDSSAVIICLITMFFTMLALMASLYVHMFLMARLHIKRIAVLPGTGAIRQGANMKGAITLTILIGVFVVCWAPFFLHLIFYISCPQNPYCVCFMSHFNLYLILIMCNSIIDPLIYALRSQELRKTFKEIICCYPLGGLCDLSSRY
T1 sequence (P41968 whole entry): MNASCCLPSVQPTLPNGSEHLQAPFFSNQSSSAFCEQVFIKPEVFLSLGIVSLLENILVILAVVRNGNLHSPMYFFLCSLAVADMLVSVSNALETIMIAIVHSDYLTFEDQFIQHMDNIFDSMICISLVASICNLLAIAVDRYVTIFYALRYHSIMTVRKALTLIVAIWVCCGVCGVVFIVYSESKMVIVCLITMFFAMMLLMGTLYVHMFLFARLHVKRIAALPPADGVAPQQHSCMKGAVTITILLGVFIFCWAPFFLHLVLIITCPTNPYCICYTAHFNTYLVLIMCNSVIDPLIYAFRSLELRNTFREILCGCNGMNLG
T4 sequence (P33032 whole entry): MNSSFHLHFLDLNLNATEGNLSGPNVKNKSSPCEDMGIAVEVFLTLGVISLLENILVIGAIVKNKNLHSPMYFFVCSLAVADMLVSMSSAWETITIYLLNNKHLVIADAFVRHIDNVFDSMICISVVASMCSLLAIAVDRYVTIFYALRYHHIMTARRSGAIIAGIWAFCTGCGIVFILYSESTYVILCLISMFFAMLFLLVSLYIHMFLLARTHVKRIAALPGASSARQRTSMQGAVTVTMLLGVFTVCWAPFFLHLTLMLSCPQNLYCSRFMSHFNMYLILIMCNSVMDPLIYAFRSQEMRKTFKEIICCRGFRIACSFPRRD
T5 sequence (Q99705 whole entry): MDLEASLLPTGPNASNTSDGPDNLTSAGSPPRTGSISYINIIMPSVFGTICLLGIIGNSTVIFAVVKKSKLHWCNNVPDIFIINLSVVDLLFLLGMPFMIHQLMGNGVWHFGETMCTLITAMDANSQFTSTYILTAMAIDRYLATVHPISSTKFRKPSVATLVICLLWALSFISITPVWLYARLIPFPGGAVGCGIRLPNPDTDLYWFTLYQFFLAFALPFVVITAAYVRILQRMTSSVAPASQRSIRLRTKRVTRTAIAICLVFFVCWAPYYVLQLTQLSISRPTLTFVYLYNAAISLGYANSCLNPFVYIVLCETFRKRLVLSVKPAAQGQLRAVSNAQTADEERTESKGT
T9 sequence (P41143 whole entry): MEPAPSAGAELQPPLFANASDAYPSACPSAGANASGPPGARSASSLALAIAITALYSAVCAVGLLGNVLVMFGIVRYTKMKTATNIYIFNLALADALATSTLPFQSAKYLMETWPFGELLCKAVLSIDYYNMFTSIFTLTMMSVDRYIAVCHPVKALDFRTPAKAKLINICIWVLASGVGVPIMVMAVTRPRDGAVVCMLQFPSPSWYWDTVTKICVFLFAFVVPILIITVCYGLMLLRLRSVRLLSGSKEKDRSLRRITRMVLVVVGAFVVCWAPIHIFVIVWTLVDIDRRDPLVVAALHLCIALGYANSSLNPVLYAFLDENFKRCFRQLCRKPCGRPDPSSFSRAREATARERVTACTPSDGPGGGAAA
T10 sequence (P41145 whole entry): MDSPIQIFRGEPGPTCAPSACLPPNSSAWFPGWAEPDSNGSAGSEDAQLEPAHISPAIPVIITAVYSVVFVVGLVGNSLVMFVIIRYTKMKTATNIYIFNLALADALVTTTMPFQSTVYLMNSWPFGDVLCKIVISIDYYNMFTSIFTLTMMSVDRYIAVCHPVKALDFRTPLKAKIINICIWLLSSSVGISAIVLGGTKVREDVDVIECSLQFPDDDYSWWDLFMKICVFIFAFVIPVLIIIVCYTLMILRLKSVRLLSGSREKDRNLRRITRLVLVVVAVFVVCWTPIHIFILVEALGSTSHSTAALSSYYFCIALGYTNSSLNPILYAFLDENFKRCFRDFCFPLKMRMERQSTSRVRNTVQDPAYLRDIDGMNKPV
T8 sequence (P41146 whole entry): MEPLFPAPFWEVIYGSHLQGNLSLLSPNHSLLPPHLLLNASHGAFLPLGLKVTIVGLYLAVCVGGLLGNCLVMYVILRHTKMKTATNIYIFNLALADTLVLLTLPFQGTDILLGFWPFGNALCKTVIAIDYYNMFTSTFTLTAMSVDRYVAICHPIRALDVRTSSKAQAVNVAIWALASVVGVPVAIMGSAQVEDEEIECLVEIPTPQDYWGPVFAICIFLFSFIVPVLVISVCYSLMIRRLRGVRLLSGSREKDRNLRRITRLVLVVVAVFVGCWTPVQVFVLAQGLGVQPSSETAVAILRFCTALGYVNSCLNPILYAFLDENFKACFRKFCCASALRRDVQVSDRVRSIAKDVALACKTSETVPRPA
T11 sequence (P25103 whole entry): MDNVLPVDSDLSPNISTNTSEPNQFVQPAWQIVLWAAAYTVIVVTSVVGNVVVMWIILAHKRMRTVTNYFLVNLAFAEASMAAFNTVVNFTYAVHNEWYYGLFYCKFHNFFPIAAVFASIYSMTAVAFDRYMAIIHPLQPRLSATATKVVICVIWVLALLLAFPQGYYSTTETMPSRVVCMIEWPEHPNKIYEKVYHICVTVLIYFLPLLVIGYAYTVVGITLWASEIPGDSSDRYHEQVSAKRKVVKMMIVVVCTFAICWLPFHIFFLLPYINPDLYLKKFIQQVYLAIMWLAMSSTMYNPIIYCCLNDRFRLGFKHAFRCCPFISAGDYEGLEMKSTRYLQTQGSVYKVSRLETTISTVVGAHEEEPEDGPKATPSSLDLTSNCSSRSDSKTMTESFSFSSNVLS
T2 sequence (P35372 whole entry): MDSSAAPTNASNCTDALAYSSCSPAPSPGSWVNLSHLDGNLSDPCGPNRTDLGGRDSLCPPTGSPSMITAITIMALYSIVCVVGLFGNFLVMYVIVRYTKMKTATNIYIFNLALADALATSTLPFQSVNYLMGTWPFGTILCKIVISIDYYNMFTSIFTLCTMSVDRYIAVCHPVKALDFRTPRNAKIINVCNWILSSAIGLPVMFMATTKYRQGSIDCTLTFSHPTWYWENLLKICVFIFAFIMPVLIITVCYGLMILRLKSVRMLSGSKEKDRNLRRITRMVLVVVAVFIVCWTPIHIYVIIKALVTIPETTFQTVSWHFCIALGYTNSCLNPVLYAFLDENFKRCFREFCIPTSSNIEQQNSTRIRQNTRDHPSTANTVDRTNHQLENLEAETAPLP

| SMILES | A3: inhibition of radioligand binding, human melanocortin (MC3) (Human Melanocortin (MC3)) | A7: inhibition of radioligand binding, human μ-opioid (MOP) (Human μ-opioid (MOP)) | A11: inhibition of radioligand binding, mouse urotensin (mUR2) (Mouse urotensin (mUR2)) | A5: inhibition of radioligand binding, human melanocortin (MC5) (Human melanocortin (MC5)) | A6: inhibition of radioligand binding, human melanin-concentrating hormone (MCH1) ([1]; [125I]-S36057) | A4: inhibition of radioligand binding, human melanocortin (MC4) (Human Melanocortin (MC4)) | A9: inhibition of radioligand binding, human neuropeptide Y (NPY-Y1) [2] | A10: inhibition of radioligand binding, human opioid (ORL1) (Human opioid (ORL1)) | A1: inhibition of radioligand binding, human δ-opioid (DOP) (Human δ-opioid (DOP)) | A2: inhibition of radioligand binding, human κ-opioid (KOP) (Human κ-Opioid (KOP)) | A8: inhibition of radioligand binding, human neurokinin (NK1) (Human neurokinin (NK1)) | other results |
| --- | --- | --- | --- | --- | --- | --- | --- | --- | --- | --- | --- | --- |
| N=C(N)NCC(=O)N[C@H]1C(OCc2ccc(Cl)cc2)O[C@H](COCc2ccccc2)[C@@H](O)[C@@H]1OCc1ccc2ccccc2c1 (stereo partly shown) [compound 514] | + (“+” indicates greater than 50% inhibition at 10 μM) | − (“−” indicates less than 50% inhibition at 10 μM) | − (“−” indicates less than 50% inhibition at 10 μM) | + (“+” indicates greater than 50% inhibition at 10 μM) | + (“+” indicates greater than 50% inhibition at 10 μM) | + (“+” indicates greater than 50% inhibition at 10 μM) | + (“+” indicates greater than 50% inhibition at 10 μM) | + (“+” indicates greater than 50% inhibition at 10 μM) | − (“−” indicates less than 50% inhibition at 10 μM) | − (“−” indicates less than 50% inhibition at 10 μM) | + (“+” indicates greater than 50% inhibition at 10 μM) | – |
| CO[C@H]1[C@H](O)[C@@H](COCc2ccc3ccccc3c2)OC(OCc2ccc(Cl)cc2)[C@@H]1NC(=O)CCNC(=N)N (stereo partly shown) [compound 98] | – | – | – | – | – | – | – | – | – | – | – | A3 radioligand binding, percentage inhibition (Human Melanocortin (MC3)): − (“−” indicates less than 50% inhibition at 10 μM); A7 radioligand binding, percentage inhibition (Human μ-opioid (MOP)): − (“−” indicates less than 50% inhibition at 10 μM); A11 radioligand binding, percentage inhibition (Mouse urotensin (mUR2)): − (“−” indicates less than 50% inhibition at 10 μM); A5 radioligand binding, percentage inhibition (Human melanocortin (MC5)): + (“+” indicates greater than 50% inhibition at 10 μM); A6 radioligand binding, percentage inhibition ([1]; [125I]-S36057): + (“+” indicates greater than 50% inhibition at 10 μM); A4 radioligand binding, percentage inhibition (Human Melanocortin (MC4)): + (“+” indicates greater than 50% inhibition at 10 μM); A9 radioligand binding, percentage inhibition [2]: − (“−” indicates less than 50% inhibition at 10 μM); A10 radioligand binding, percentage inhibition (Human opioid (ORL1)): − (“−” indicates less than 50% inhibition at 10 μM); A1 radioligand binding, percentage inhibition (Human δ-opioid (DOP)): − (“−” indicates less than 50% inhibition at 10 μM); A2 radioligand binding, percentage inhibition (Human κ-Opioid (KOP)): − (“−” indicates less than 50% inhibition at 10 μM); A8 radioligand binding, percentage inhibition (Human neurokinin (NK1)): + (“+” indicates greater than 50% inhibition at 10 μM) |
| CSC1OC(COCc2ccc(Cl)cc2)C(O)C(OCc2ccc3ccccc3c2)C1NC(=O)CNC(=N)N (stereo not shown) [compound 307] | + (“+” indicates greater than 50% inhibition at 10 μM) | − (“−” indicates less than 50% inhibition at 10 μM) | − (“−” indicates less than 50% inhibition at 10 μM) | + (“+” indicates greater than 50% inhibition at 10 μM) | − (“−” indicates less than 50% inhibition at 10 μM) | + (“+” indicates greater than 50% inhibition at 10 μM) | − (“−” indicates less than 50% inhibition at 10 μM) | − (“−” indicates less than 50% inhibition at 10 μM) | − (“−” indicates less than 50% inhibition at 10 μM) | − (“−” indicates less than 50% inhibition at 10 μM) | + (“+” indicates greater than 50% inhibition at 10 μM) | – |
| CSC1O[C@H](COCc2ccc(Cl)cc2)[C@@H](O)[C@@H](OCc2ccc(Cl)cc2)[C@H]1NC(=O)CCNC(=N)N (stereo partly shown) [compound 272] | – | – | – | – | – | – | – | – | – | – | – | A3: inhibition of radioligand binding (Human Melanocortin (MC3); FlashPlate): − (“−” indicates less than 50% inhibition at 10 μM); A7: inhibition of radioligand binding (Human μ-opioid (MOP); FlashPlate): − (“−” indicates less than 50% inhibition at 10 μM); A11: inhibition of radioligand binding (Mouse urotensin (mUR2); FlashPlate): − (“−” indicates less than 50% inhibition at 10 μM); A5: inhibition of radioligand binding (Human melanocortin (MC5); FlashPlate): + (“+” indicates greater than 50% inhibition at 10 μM); A6: inhibition of radioligand binding ([1]; [125I]-S36057, FlashPlate): − (“−” indicates less than 50% inhibition at 10 μM); A4: inhibition of radioligand binding (Human Melanocortin (MC4); FlashPlate): + (“+” indicates greater than 50% inhibition at 10 μM); A9: inhibition of radioligand binding ([2]; FlashPlate): − (“−” indicates less than 50% inhibition at 10 μM); A10: inhibition of radioligand binding (Human opioid (ORL1); FlashPlate): − (“−” indicates less than 50% inhibition at 10 μM); A1: inhibition of radioligand binding (Human δ-opioid (DOP); FlashPlate): − (“−” indicates less than 50% inhibition at 10 μM); A2: inhibition of radioligand binding (Human κ-Opioid (KOP); filtration): − (“−” indicates less than 50% inhibition at 10 μM); A8: inhibition of radioligand binding (Human neurokinin (NK1); filtration): + (“+” indicates greater than 50% inhibition at 10 μM) |
| CSC1O[C@H](COCc2ccc3ccccc3c2)[C@@H](O)[C@@H](OCc2ccc(-c3ccccc3)cc2)[C@H]1NC(=O)CCN (stereo partly shown) [compound 297] | − (“−” indicates less than 50% inhibition at 10 μM) | − (“−” indicates less than 50% inhibition at 10 μM) | − (“−” indicates less than 50% inhibition at 10 μM) | − (“−” indicates less than 50% inhibition at 10 μM) | − (“−” indicates less than 50% inhibition at 10 μM) | − (“−” indicates less than 50% inhibition at 10 μM) | − (“−” indicates less than 50% inhibition at 10 μM) | − (“−” indicates less than 50% inhibition at 10 μM) | − (“−” indicates less than 50% inhibition at 10 μM) | − (“−” indicates less than 50% inhibition at 10 μM) | + (“+” indicates greater than 50% inhibition at 10 μM) | – |
